Experimental findings from US20240262826A1, “WILD TYPE KIT INHIBITORS” (Blueprint Medicines Corporation, priority 2022, published 2024) are described below.

For this assay, the target named is wild type c-kit (Homo sapiens (Human), UniProt P10721). In words: PathScan phospho c-kit (Tyr719) sandwich ELISA in SCF-stimulated M-07e cells (pKIT assay). The class given is cell-based. Conditions: ELISA assay (values not marked *). The source says: The ability of compounds of the disclosure (described herein as test compounds) to inhibit autophosphorylation of wild type c-kit was measures using either a PathScan phospho c-kit (Tyr719) sandwich ELISA (CST #7298) or a Phospho c-Kit (Tyr721) Assay Whole Cell Lysate Kit (MSD: 515DPD/catalog number K15119D-2).
For the PathScan phospho c-kit (Tyr719) sandwich ELISA: M-07e cells were resuspended at 2×10^6 cells/mL in phenol red free, serum-free, GM-CSF-free Iscove's Modified Dulbecco's Medium (IMDM) media with 1% Penicillin-Streptomycin. The cells were then dispensed into the wells of a U-bottom, 96-well plate at 50 uL per well using a multichannel pipet. The plate was allowed to incubate at 37° C. in a humidified tissue culture incubator for 4 hours.
After 4 hours of incubation, each well was dosed with 6.25 uL of test compound at a final DMSO concentration of 0.25% for 60 min at 37° C. to generate an 8-point dose concentration series of test compounds in duplicate. Cells were then incubated for 1 hour at 37° C. in a humidified tissue culture incubator. Next, human SCF at 500 ng/mL was added to the appropriate wells at 6.25 uL/well and the plate was shaken at 450 rpm at room temperature for 10 minutes. AlphaLISA 5× Lysis Buffer supplemented with 1× protease and phosphatase inhibitor was then added at 16 uL/well. The plate was sealed with an adherent cover and shaken at 4° C. at 600 rpm for 30 minutes. After this period of lysis, the plate was stored at −80° C.
When the 96-well plate containing M07e lysates was ready to be processed, the plate was brought to room temperature and 40 μl from each well was transferred to the wells of a PathScan Phospho-c-Kit (Tyr719) Sandwich ELISA plate (CST, Catalog #7298). The ELISA plate was sealed with an adherent cover and incubated for 2 hours at 37° C. Next, the wells were washed 4 times with the provided 1× Wash Buffer, and 100 uL/well of reconstituted Detection Antibody was added to each well, the plate sealed with an adherent cover, and incubated at 37° C. for 1 hour. The wash procedure was repeated and 100 uL/well of reconstituted HRP-Linked secondary antibody was added. The plate was sealed with an adherent cover and incubated at 37° C. for 1 hour. The wash procedure was repeated and 100 uL/well of TMB Substrate was added. The plate was incubated for 10 minutes at room temperature or until the positive reaction elicited a blue color in the appropriate wells. 100 uL/well of STOP solution was added and shaken gently for a few seconds a microplate reader or conventional spectrophotometer e.g., a Perkin Elmer Envision multimode plate reader, part #2105-0010.
An IC50 was calculated using a 4-parameter logistic nonlinear regression.

Sequence of wild type c-kit (P10721 26-976): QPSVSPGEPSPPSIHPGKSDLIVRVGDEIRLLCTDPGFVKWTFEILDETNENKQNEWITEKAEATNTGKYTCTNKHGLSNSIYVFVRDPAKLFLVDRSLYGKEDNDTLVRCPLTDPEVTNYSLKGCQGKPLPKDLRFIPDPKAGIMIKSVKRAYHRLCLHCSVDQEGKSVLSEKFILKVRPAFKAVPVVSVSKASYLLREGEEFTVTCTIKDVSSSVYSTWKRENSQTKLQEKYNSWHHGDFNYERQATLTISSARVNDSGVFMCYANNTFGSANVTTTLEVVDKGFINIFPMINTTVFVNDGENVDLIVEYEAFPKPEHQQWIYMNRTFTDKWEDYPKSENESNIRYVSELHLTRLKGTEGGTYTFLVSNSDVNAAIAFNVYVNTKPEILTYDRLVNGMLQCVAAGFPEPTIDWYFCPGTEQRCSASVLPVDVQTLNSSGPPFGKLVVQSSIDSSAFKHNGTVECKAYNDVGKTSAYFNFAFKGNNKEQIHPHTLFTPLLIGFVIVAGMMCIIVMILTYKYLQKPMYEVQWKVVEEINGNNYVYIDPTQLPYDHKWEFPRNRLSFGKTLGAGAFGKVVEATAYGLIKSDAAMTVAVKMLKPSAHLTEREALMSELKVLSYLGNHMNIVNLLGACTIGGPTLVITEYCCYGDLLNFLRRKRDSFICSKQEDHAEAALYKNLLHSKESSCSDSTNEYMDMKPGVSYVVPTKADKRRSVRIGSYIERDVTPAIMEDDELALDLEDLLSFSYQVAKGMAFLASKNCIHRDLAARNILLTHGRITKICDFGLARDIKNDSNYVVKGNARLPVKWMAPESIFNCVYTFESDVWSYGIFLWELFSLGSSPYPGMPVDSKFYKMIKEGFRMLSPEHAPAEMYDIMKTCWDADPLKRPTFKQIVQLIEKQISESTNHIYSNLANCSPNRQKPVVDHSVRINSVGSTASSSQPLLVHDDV

One may read the IC50 as the point on the concentration scale where inhibition reaches its midpoint. A high value points to lower potency. In turn, `Cc1ccc(-c2nnn(C3CC3)n2)cc1NC(=O)c1cnn2ccc(-c3cn([C@H](C)[C@H](C)O)nc3C)cc12` (single isomer, unassigned) [Example 269, N-(5-(2-cyclopropyl-2H-tetrazol-5-yl)-2-methylphenyl)-5-(1-((2R,3S)-3-hydroxybutan-2-yl)-3-methyl-1H-pyrazol-4-yl)pyrazolo[1,5-a]pyridine-3-carboxamide or N-(5-(2-cyclopropyl-2H-tetrazol-5-yl)-2-methylphenyl)-5-(1-((2S,3R)-3-hydroxybutan-2-yl)-3-methyl-1H-pyrazol-4-yl)pyrazolo[1,5-a]pyridine-3-carboxamide] displayed an IC50 of 0.3 nM. In turn, `COCC(C)Nc1ccn2ncc(C(=O)Nc3cc(-c4nnn(C5CN(C(=O)OC)C5)n4)ccc3C)c2c1` (stereo in doubt) [Example 128, methyl (S)-3-(5-(3-(5-((1-methoxypropan-2-yl)amino)pyrazolo[1,5-a]pyridine-3-carboxamido)-4-methylphenyl)-2H-tetrazol-2-yl)azetidine-1-carboxylate] had a half-maximal inhibitory concentration (IC50) of 47.4 nM.

`Cc1ccc(-n2ncc(C3CC(F)(F)C3)n2)cc1NC(=O)c1cnn2ccccc12` [Example 161, N-(5-(4-(3,3-difluorocyclobutyl)-2H-1,2,3-triazol-2-yl)-2-methylphenyl)pyrazolo[1,5-a]pyridine-3-carboxamide] registered an IC50 of 9 nM. Then `COC(=O)N1CC(n2nnc(-c3ccc(C)c(NC(=O)c4cnn5ccc(N(C)C)cc45)c3)n2)C1` [Example 132, methyl 3-(5-(3-(5-(dimethylamino)pyrazolo[1,5-a]pyridine-3-carboxamido)-4-methylphenyl)-2H-tetrazol-2-yl)azetidine-1-carboxylate], with 21.4 nM. Then `Cc1ccc(-c2nnn(C)n2)cc1NC(=O)c1cnn2ccc(-c3cnn(CCCS(C)(=N)=O)c3)cc12` (stereo not shown) [Example 232, N-(2-methyl-5-(2-methyl-2H-tetrazol-5-yl)phenyl)-5-(1-(3-(S-methylsulfonimidoyl)propyl)-1H-pyrazol-4-yl)pyrazolo[1,5-a]pyridine-3-carboxamide], with 26 nM. `COCCNc1ccn2ncc(C(=O)Nc3cc(-c4nnn(C5CC5)n4)ccc3C)c2c1` [Example 88, N-(5-(2-cyclopropyl-2H-tetrazol-5-yl)-2-methylphenyl)-5-((2-methoxyethyl)amino)pyrazolo[1,5-a]pyridine-3-carboxamide]: half-maximal inhibition (IC50) was put at 3.2 nM.

Compound `CCn1nnc(-c2ccc(C)c(NC(=O)c3cnn4ccccc34)c2)n1` [Example 14, N-(5-(2-ethyl-2H-tetrazol-5-yl)-2-methylphenyl)pyrazolo[1,5-a]pyridine-3-carboxamide] returned an IC50 of 28.6 nM.

The compound `COC(=O)N1CC(n2nnc(-c3ccc(C)c(NC(=O)c4cnn5ccccc45)c3)n2)C1` [Example 191, methyl 3-(5-(4-methyl-3-(pyrazolo[1,5-a]pyridine-3-carboxamido)phenyl)-2H-tetrazol-2-yl)azetidine-1-carboxylate] registered an IC50 of 41.3 nM. The compound `COC[C@@](C)(O)Cn1cc(-c2ccn3ncc(C(=O)Nc4cc(-c5nnn(C6CC6)n5)c(F)cc4C)c3c2)c(C)n1` (single isomer, unassigned) [Example 249, (S)-N-(5-(2-cyclopropyl-2H-tetrazol-5-yl)-4-fluoro-2-methylphenyl)-5-(1-(2-hydroxy-3-methoxy-2-methylpropyl)-3-methyl-1H-pyrazol-4-yl)pyrazolo[1,5-a]pyridine-3-carboxamide or (R)-N-(5-(2-cyclopropyl-2H-tetrazol-5-yl)-4-fluoro-2-methylphenyl)-5-(1-(2-hydroxy-3-methoxy-2-methylpropyl)-3-methyl-1H-pyrazol-4-yl)pyrazolo[1,5-a]pyridine-3-carboxamide] had an IC50 of 0.7 nM. Next, `Cc1ccc(-c2nnn(C3CN(S(=O)(=O)CCOCC(F)F)C3)n2)cc1NC(=O)c1cnn2ccccc12` [Example 176, N-(5-(2-(1-((2-(2,2-difluoroethoxy)ethyl)sulfonyl)azetidin-3-yl)-2H-tetrazol-5-yl)-2-methylphenyl)pyrazolo[1,5-a]pyridine-3-carboxamide]: 47.9 nM; `Cc1ccc(-c2nnn(CC3CC4(CCC4)CO3)n2)cc1NC(=O)c1cnn2ccccc12` (stereo not shown) [Example 9, N-(5-(2-((6-oxaspiro[3.4]octan-7-yl)methyl)-2H-tetrazol-5-yl)-2-methylphenyl)pyrazolo[1,5-a]pyridine-3-carboxamide]: 4.8 nM; `Cc1ccc(-c2nnn(C)n2)cc1NC(=O)c1cnn2cc(-c3cnn(CC(C)(C)O)c3)cc(F)c12` [Example 214, 4-fluoro-6-(1-(2-hydroxy-2-methylpropyl)-1H-pyrazol-4-yl)-N-(2-methyl-5-(2-methyl-2H-tetrazol-5-yl)phenyl)pyrazolo[1,5-a]pyridine-3-carboxamide]: 2.7 nM. Then `COC[C@H](O)Cn1cc(-c2ccn3ncc(C(=O)Nc4cc(-c5nnn(C6CC6)n5)c(F)cc4Cl)c3c2)c(C)n1` [Example 279, (R)—N-(2-chloro-5-(2-cyclopropyl-2H-tetrazol-5-yl)-4-fluorophenyl)-5-(1-(2-hydroxy-3-methoxypropyl)-3-methyl-1H-pyrazol-4-yl)pyrazolo[1,5-a]pyridine-3-carboxamide], with 0.6 nM; and `[2H]C([2H])([2H])N1CCN(c2ccn3ncc(C(=O)Nc4cc(-c5nnn(C6CN(C(=O)OC)C6)n5)ccc4C)c3c2)CC1` [Example 72, methyl 3-(5-(4-methyl-3-(5-(4-(methyl-d3)piperazin-1-yl)pyrazolo[1,5-a]pyridine-3-carboxamido)phenyl)-2H-tetrazol-2-yl)azetidine-1-carboxylate], with 38.4 nM; and `COCCOCCS(=O)(=O)N1CC(n2nnc(-c3ccc(C)c(NC(=O)c4cnn5ccccc45)c3)n2)C1` [Example 185, N-(5-(2-(1-((2-(2-methoxyethoxy)ethyl)sulfonyl)azetidin-3-yl)-2H-tetrazol-5-yl)-2-methylphenyl)pyrazolo[1,5-a]pyridine-3-carboxamide], with 161 nM.

Regarding `O=C(Nc1cc(-c2nnn(C3CN(CC(F)(F)F)C3)n2)ccc1Cl)c1cnn2ccccc12` [Example 195, N-(2-chloro-5-(2-(1-(2,2,2-trifluoroethyl)azetidin-3-yl)-2H-tetrazol-5-yl)phenyl)pyrazolo[1,5-a]pyridine-3-carboxamide], the IC50 came out at 8.7 nM. Next, `Cc1cc(Cl)c(NC(=O)c2cnn3ccc(N4CCOCC4)cc23)cc1-c1nnn(C2CC(F)(F)C2)n1` [Example 170, N-(2-chloro-5-(2-(3,3-difluorocyclobutyl)-2H-tetrazol-5-yl)-4-methylphenyl)-5-morpholinopyrazolo[1,5-a]pyridine-3-carboxamide]: 6.3 nM. For `Cc1ccc(-c2nnn(C3CC3)n2)cc1NC(=O)c1cnn2ccc(-c3cnn(C[C@H]4CNCCO4)c3)cc12` [Example 229, (R)-N-(5-(2-cyclopropyl-2H-tetrazol-5-yl)-2-methylphenyl)-5-(1-(morpholin-2-ylmethyl)-1H-pyrazol-4-yl)pyrazolo[1,5-a]pyridine-3-carboxamide], half-maximal inhibition (IC50) was put at 0.7 nM.

Consider `Cc1nnn(-c2ccc(Cl)c(NC(=O)c3cnn4ccc(-c5cnn(CC(C)(C)O)c5)cc34)c2)n1` [Example 212, N-(2-chloro-5-(5-methyl-2H-tetrazol-2-yl)phenyl)-5-(1-(2-hydroxy-2-methylpropyl)-1H-pyrazol-4-yl)pyrazolo[1,5-a]pyridine-3-carboxamide], for which half-maximal inhibition (IC50) required 5.6 nM. Next, `Cc1ccc(-c2nnn(CC3CC4(CC4)CO3)n2)cc1NC(=O)c1cnn2ccccc12` (stereo not shown) [Example 10, N-(5-(2-((5-oxaspiro[2.4]heptan-6-yl)methyl)-2H-tetrazol-5-yl)-2-methylphenyl)pyrazolo[1,5-a]pyridine-3-carboxamide]: 3.8 nM; `Cc1ccc(-c2nnn(C3CC3)n2)cc1NC(=O)c1cnn2ccc(-c3cnn(CC(C)(C)O)c3)cc12` [Example 242, N-(5-(2-cyclopropyl-2H-tetrazol-5-yl)-2-methylphenyl)-5-(1-(2-hydroxy-2-methylpropyl)-1H-pyrazol-4-yl)pyrazolo[1,5-a]pyridine-3-carboxamide]: 0.5 nM; `CCOC(=O)N1CC(n2nnc(-c3ccc(C)c(NC(=O)c4cnn5ccc(N6CCOCC6)cc45)c3)n2)C1` [Example 77, ethyl 3-(5-(4-methyl-3-(5-morpholinopyrazolo[1,5-a]pyridine-3-carboxamido)phenyl)-2H-tetrazol-2-yl)azetidine-1-carboxylate]: 60.7 nM.
